Among the data in US10550105B2 (Ribon Therapeutics Inc., priority 2018, dated 2020) are IC50 values, retold here.

The experiment addresses PARP7 (Homo sapiens (Human), UniProt Q7Z3E1). Description: Enzymatic assay for inhibition of PARP7: TR-FRET displacement of biotinylated Probe A from the TIPARP active site. The following applies: Table A-1. It counts as binding. The gist of the method:
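Read-out: 665/615 nm emission ratio (ex 320 nm, 90 μs delay) indexing bound TIPARP–Probe A. Final incubation 30 min, 25° C; compounds in dose response. Curve fit of % inhibition vs concentration; Hill slope floating or fixed at 1 (3-parameter).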
(TR-FRET usually uses a lanthanide donor and a delayed reading to cut background.)

PARP7, sequence (Q7Z3E1 whole entry): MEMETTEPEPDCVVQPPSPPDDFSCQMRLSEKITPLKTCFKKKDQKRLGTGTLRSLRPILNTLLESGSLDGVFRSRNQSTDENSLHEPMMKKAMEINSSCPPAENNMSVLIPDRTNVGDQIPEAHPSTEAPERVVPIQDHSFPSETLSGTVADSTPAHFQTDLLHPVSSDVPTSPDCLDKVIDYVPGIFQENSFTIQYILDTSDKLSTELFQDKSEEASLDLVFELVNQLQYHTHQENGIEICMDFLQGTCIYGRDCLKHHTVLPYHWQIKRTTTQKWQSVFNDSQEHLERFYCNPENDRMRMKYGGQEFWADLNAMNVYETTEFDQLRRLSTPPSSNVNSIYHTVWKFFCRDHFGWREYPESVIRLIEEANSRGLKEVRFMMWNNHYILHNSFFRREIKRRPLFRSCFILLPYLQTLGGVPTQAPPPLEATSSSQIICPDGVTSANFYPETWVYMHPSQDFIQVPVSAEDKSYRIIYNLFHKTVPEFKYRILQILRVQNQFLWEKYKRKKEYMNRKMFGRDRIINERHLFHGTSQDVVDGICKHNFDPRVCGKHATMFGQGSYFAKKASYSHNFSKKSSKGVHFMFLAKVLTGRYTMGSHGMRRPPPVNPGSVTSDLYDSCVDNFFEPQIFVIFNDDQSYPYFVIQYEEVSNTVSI

What is called IC50 is the concentration that gives 50% inhibition. The low end stands for higher potency, the high end for lower potency. `O=C(CCOC[C@H](Nc1cn[nH]c(=O)c1C(F)(F)F)[C@@H]1CCOC1)N1CCN(c2ncc(C(F)(F)F)cn2)CC1` [Example 614 Isomer D, 5-(((R)-2-(3-Oxo-3-(4-(5-(trifluoromethyl)pyrimidin-2-yl)piperazin-1-yl)propoxy)-1-((S)-tetrahydrofuran-3-yl)ethyl)amino)-4-(trifluoromethyl)pyridazin-3(2H)-one] yielded a concentration for half-maximal inhibition (IC50) of less than 100 nM.

The compound `C[C@@H](CNCCC(=O)N1CCN(c2ncc(C(F)(F)F)cn2)CC1)Oc1cn[nH]c(=O)c1C(F)(F)F` [Example 615, (S)-5-((1-((3-Oxo-3-(4-(5-(trifluoromethyl)pyrimidin-2-yl)piperazin-1-yl)propyl)amino)propan-2-yl)oxy)-4-(trifluoromethyl)pyridazin-3(2H)-one] yielded a half-inhibitory concentration (IC50) of 100 to 1000 nM.

`C[C@@H](CN(C)CCC(=O)N1CCN(c2ncc(C(F)(F)F)cn2)CC1)Oc1cn[nH]c(=O)c1C(F)(F)F` [Example 616, (S)-5-((1-(Methyl(3-oxo-3-(4-(5-(trifluoromethyl)pyrimidin-2-yl)piperazin-1-yl)propyl)amino)propan-2-yl)oxy)-4-(trifluoromethyl)pyridazin-3(2H)-one] came in with a half-maximal inhibitory concentration (IC50) of less than 100 nM.

Take `C[C@@H](COCCC(=O)N1CCN(c2ncc(C(F)(F)F)cn2)CC1)Sc1cn[nH]c(=O)c1C(F)(F)F` [Example 618, (S)-5-((1-(3-Oxo-3-(4-(5-(trifluoromethyl)pyrimidin-2-yl)piperazin-1-yl)propoxy)propan-2-yl)thio)-4-(trifluoromethyl)pyridazin-3(2H)-one]: the IC50 is less than 100 nM.

`C[C@@H](COCCS(=O)(=O)N1CCN(c2ncc(C(F)(F)F)cn2)CC1)Nc1cn[nH]c(=O)c1C(F)(F)F` [Example 620, (S)-4-(Trifluoromethyl)-5-((1-(2-((4-(5-(trifluoromethyl)pyrimidin-2-yl)piperazin-1-yl)sulfonyl)ethoxy)propan-2-yl)amino)pyridazin-3(2H)-one] yielded a half-inhibitory concentration (IC50) of less than 100 nM.

Consider `C[C@@H](CSCCC(=O)N1CCN(c2ncc(C(F)(F)F)cn2)CC1)Oc1cn[nH]c(=O)c1C(F)(F)F` [Example 621A, (S)-5-((1-((3-Oxo-3-(4-(5-(trifluoromethyl)pyrimidin-2-yl)piperazin-1-yl)propyl)thio)propan-2-yl)oxy)-4-(trifluoromethyl)pyridazin-3(2H)-one], for which the concentration for half-maximal inhibition (IC50) is 100 to 1000 nM.

Consider `C[C@H](CSCCC(=O)N1CCN(c2ncc(C(F)(F)F)cn2)CC1)Oc1cn[nH]c(=O)c1C(F)(F)F` [Example 621B, (R)-5-((1-((3-Oxo-3-(4-(5-(trifluoromethyl)pyrimidin-2-yl)piperazin-1-yl)propyl)thio)propan-2-yl)oxy)-4-(trifluoromethyl)pyridazin-3(2H)-one], for which the IC50 was less than 100 nM.

`C[C@@H](COCCC(=O)N1CCN(c2ncc(C(F)(F)F)s2)CC1)Nc1cn[nH]c(=O)c1C(F)(F)F` [Example 622, (S)-5-((1-(3-Oxo-3-(4-(5-(trifluoromethyl)thiazol-2-yl)piperazin-1-yl)propoxy)propan-2-yl)amino)-4-(trifluoromethyl)pyridazin-3(2H)-one] displayed a half-maximal inhibitory concentration (IC50) of less than 100 nM.

With `C[C@@H](COCCC(=O)N1CCN(c2ncc(C(C)(C)C)cn2)CC1)Nc1cn[nH]c(=O)c1C(F)(F)F` [Example 623, (S)-5-((1-(3-(4-(5-(Tert-butyl)pyrimidin-2-yl)piperazin-1-yl)-3-oxopropoxy)propan-2-yl)amino)-4-(trifluoromethyl)pyridazin-3(2H)-one], the IC50 was less than 100 nM.

The compound `COC[C@@H](COCCS(=O)(=O)N1CCN(c2ncc(C(F)(F)F)cn2)CC1)Nc1cn[nH]c(=O)c1C(F)(F)F` [Example 624, (S)-5-((1-Methoxy-3-(2-[(4-(5-(trifluoromethyl)pyrimidin-2-yl)piperazin-1-yl)sulfonyl)ethoxy)propan-2-yl)amino)-4-(trifluoromethyl)pyridazin-3(2H)-one] displayed an IC50 of less than 100 nM.

In turn, `C[C@@H](COCCS(=O)(=O)N1CCN(c2ncc(C(F)(F)F)s2)CC1)Oc1cn[nH]c(=O)c1C(F)(F)F` [Example 625, (S)-4-(Trifluoromethyl)-5-((1-(2-[(4-(5-(trifluoromethyl)thiazol-2-yl)piperazin-1-yl)sulfonyl)ethoxy)propan-2-yl)oxy)pyridazin-3(2H)-one] displayed an IC50 of less than 100 nM.

On to `C[C@@H](COCC(O)CN1CCN(c2ncc(C(F)(F)F)cn2)CC1)Nc1cn[nH]c(=O)c1C(F)(F)F` (stereo partly drawn) [Example 626, 5-(((2S)-1-(2-Hydroxy-3-(4-(5-(trifluoromethyl)pyrimidin-2-yl)piperazin-1-yl)propoxy)propan-2-yl)amino)-4-(trifluoromethyl)pyridazin-3(2H)-one], for which the IC50 is less than 100 nM.

Regarding `O=C(CCNC[C@@H]1c2ccccc2CN1c1cn[nH]c(=O)c1C(F)(F)F)N1CCN(c2ncc(Cl)cn2)CC1` [Example 627, (S)-5-(1-(((3-(4-(5-Chloropyrimidin-2-yl)piperazin-1-yl)-3-oxopropyl)amino)methyl)isoindolin-2-yl)-4-(trifluoromethyl)pyridazin-3(2H)-one], the IC50 is less than 100 nM.

Compound `O=C(CCNC[C@H]1c2ccccc2CN1c1cn[nH]c(=O)c1C(F)(F)F)N1CCN(c2ncc(Cl)cn2)CC1` [Example 628, (R)-5-(1-(((3-(4-(5-Chloropyrimidin-2-yl)piperazin-1-yl)-3-oxopropyl)amino)methyl)isoindolin-2-yl)-4-(trifluoromethyl)pyridazin-3(2H)-one] returned an IC50 of no less than 1000 nM.

`O=C(CCNC[C@@H]1c2ccccc2CN1c1cn[nH]c(=O)c1C(F)(F)F)N1CCN(c2ccc(C(F)(F)F)cn2)CC1` [Example 629, (S)-5-(1-(((3-Oxo-3-(4-(5-(trifluoromethyl)pyridin-2-yl)piperazin-1-yl)propyl)amino)methyl)isoindolin-2-yl)-4-(trifluoromethyl)pyridazin-3(2H)-one] displayed an IC50 of less than 100 nM.

In the case of `O=C(CCNC[C@H]1c2ccccc2CN1c1cn[nH]c(=O)c1C(F)(F)F)N1CCN(c2ccc(C(F)(F)F)cn2)CC1` [Example 630, (R)-5-(1-(((3-Oxo-3-(4-(5-(trifluoromethyl)pyridin-2-yl)piperazin-1-yl)propyl)amino)methyl)isoindolin-2-yl)-4-(trifluoromethyl)pyridazin-3(2H)-one], the IC50 is no less than 1000 nM.

`O=C(CCOC[C@H](CO)Nc1cn[nH]c(=O)c1C(F)(F)F)N1CCN(c2ccc(Cl)cn2)CC1` [Example 633, (S)-5-((1-(3-(4-(5-Chloropyridin-2-yl)piperazin-1-yl)-3-oxopropoxy)-3-hydroxypropan-2-yl)amino)-4-(trifluoromethyl)pyridazin-3(2H)-one]: the IC50 is less than 100 nM.

Consider `C[C@@H](COCCCC(=O)N1CCN(c2ncc(C(F)(F)F)cn2)CC1)Nc1cn[nH]c(=O)c1C(F)(F)F` [Example 634, (S)-5-((1-(4-Oxo-4-(4-(5-(trifluoromethyl)pyrimidin-2-yl)piperazin-1-yl)butoxy)propan-2-yl)amino)-4-(trifluoromethyl)pyridazin-3(2H)-one], for which the IC50 is less than 100 nM.

The compound `C[C@H](O)[C@@H](COCCC(=O)N1CCN(c2ncc(C(F)(F)F)cn2)CC1)Nc1cn[nH]c(=O)c1C(F)(F)F` [Example 635, 5-(((2R,3S)-3-Hydroxy-1-(3-oxo-3-(4-(5-(trifluoromethyl)pyrimidin-2-yl)piperazin-1-yl)propoxy)butan-2-yl)amino)-4-(trifluoromethyl)pyridazin-3(2H)-one] returned a concentration for half-maximal inhibition (IC50) of less than 100 nM.

`C[C@@H](COCCC(=O)N1CCN(c2ncc(C(F)(F)F)cn2)CC1)N(C)c1cn[nH]c(=O)c1Cl` [Example 636, (S)-4-Chloro-5-(methyl(1-(3-oxo-3-(4-(5-(trifluoromethyl)pyrimidin-2-yl)piperazin-1-yl)propoxy)propan-2-yl)amino)pyridazin-3(2H)-one] registered a 50% inhibitory concentration (IC50) of 100 to 1000 nM.

Regarding `O=C(CCOC[C@H](Cc1cccnc1)Nc1cn[nH]c(=O)c1C(F)(F)F)N1CCN(c2ncc(C(F)(F)F)cn2)CC1` [Example 637, (S)-5-((1-(3-Oxo-3-(4-(5-(trifluoromethyl)pyrimidin-2-yl)piperazin-1-yl)propoxy)-3-(pyridin-3-yl)propan-2-yl)amino)-4-(trifluoromethyl)pyridazin-3(2H)-one], the IC50 is less than 100 nM.

On to `N#Cc1ccc(N2CCN(C(=O)C[C@H]3CC[C@H](COc4cn[nH]c(=O)c4C(F)(F)F)N3)CC2)nc1` [Example 638, 6-(4-(2-((2R,5R)-5-(((6-Oxo-5-(trifluoromethyl)-1,6-dihydropyridazin-4-yl)oxy)methyl)pyrrolidin-2-yl)acetyl)piperazin-1-yl)nicotinonitrile], for which the IC50 was in the range of 100 to 1000 nM.

As for `N#Cc1ccc(N2CCN(C(=O)C[C@@H]3CC[C@@H](COc4cn[nH]c(=O)c4C(F)(F)F)N3)CC2)nc1` [Example 639, 6-(4-(2-((2S,5S)-5-(((6-Oxo-5-(trifluoromethyl)-1,6-dihydropyridazin-4-yl)oxy)methyl)pyrrolidin-2-yl)acetyl)piprazin-1-yl)nicotinonitrile], the IC50 was no less than 1000 nM.

For the compound `C[C@@H](CCOCCC(=O)N1CCN(c2ncc(C(F)(F)F)cn2)CC1)Nc1cn[nH]c(=O)c1C(F)(F)F` [Example 640, (S)-5-((4-(3-Oxo-3-(4-(5-(trifluoromethyl)pyrimidin-2-yl)piperazin-1-yl)propoxy)butan-2-yl)amino)-4-(trifluoromethyl)pyridazin-3(2H)-one], the IC50 was less than 100 nM.

The compound `C[C@@H](COCCC(=O)N1CCN(c2ncc(C(F)(F)F)cn2)CC1)N(C)c1cn[nH]c(=O)c1C(F)(F)F` [Example 641, (S)-5-(Methyl(1-(3-oxo-3-(4-(5-(trifluoromethyl)pyrimidin-2-yl)piperazin-1-yl)propoxy)propan-2-yl)amino)-4-(trifluoromethyl)pyridazin-3(2H)-one] gave a 50% inhibitory concentration (IC50) of 100 to 1000 nM.

Consider `O=C(CC1CCC(COc2cn[nH]c(=O)c2C(F)(F)F)N1)N1CCN(c2ncc(C(F)(F)F)cn2)CC1` (centres unmarked) [Example 642, 5-((5-(2-Oxo-2-(4-(5-(trifluoromethyl)pyrimidin-2-yl)piperazin-1-yl)ethyl)pyrrolidin-2-yl)methoxy)-4-(trifluoromethyl)pyridazin-3(2H)-one], for which the half-inhibitory concentration (IC50) is 100 to 1000 nM.
